# Where “and” joins values, the source holds several entries; their conditions need not be identical. Equal entries are not always repeated. Where two headings read alike, the source gives them in different places.
# How the values were obtained:
# [1] = biological target: T1, VCB: PROTAC: SMARCA2^BD ternary complex (Homo sapiens, UniProt P51531); test: TR-FRET ternary complex affinity and cooperativity, SMARCA2; type: binding
# T1 construct: P51531-2, residues 1373-1493 with additional N-terminal SM residues; GST (TEV site) (N); His6 (TEV site) (N, cleaved yes); made in house; host or cells: SMARCA2^BD: Escherichia coli BL21(DE3)
# PBRM1 BD = biological target: T2, PBRM1 BD (Homo sapiens, UniProt Q86U86); test: TR-FRET binary and ternary (PROTAC + VCB) affinity, PBRM1 bromodomain; type: binding; conditions: individual replicates
# T2 construct: GST (TEV site) (N); made in house; host or cells: Escherichia coli BL21(DE3)
# SMARCA2 = SMARCA2 (Homo sapiens, UniProt P51531); test: SMARCA2 capillary electrophoresis protein assay in RKO cells; type: cell-based; parameters: endogenous in cells; host or cells: RKO, NCI-H1568, A549, HCT116, LU99, HCC-364, HCT-15, HCC4006, SK-N-AS
# Procedure: 130,000–200,000 cells were seeded in 24-well plates and incubated until settled down or overnight. Compounds were dissolved in DMSO and added to cells in indicated concentrations using a digital dispenser following an optional media change. […] For SMARCA2/4 half-life determination, 150,000 or 200,000 cells were seeded in 24-well plates. […] For SMARCA2/4 re-synthesis measurements, 200,000 cells were seeded in 24-well plates. […] Medium was removed, cells were washed with PBS and lysed with 80 µl Lysis Buffer (MSD Tris Lysis Buffer (#R60TX-2) + Halt Inhibitor Cocktail (100x) + Benzonase 0.5 µL/ml). Samples were frozen at −80 °C and thawed at room temperature before use. Samples were transferred to a V-bottom plate and insoluble debris was pelleted by centrifugation for 5 min at maximum speed. The supernatant was transferred to a fresh plate. Master Mix and Ladder were prepared according to manufacturer’s instructions for 12–230 kDa Wes Separation Module, 8 × 25 capillary cartridges, Protein Simple #SM-W004 with Anti-Rabbit Detection Module for Wes, Peggy Sue or Sally Sue, Protein Simple #DM-001. 4.8 µl lysate were mixed with 1.2 µl Master Mix to achieve a protein concentration of ~0.5 µg/µl. […] Wes plates were prepared and run according to manufacturer’s instructions. Proteins were quantified with accompanying Compass Software. SMARCA2/4 protein levels were normalised to GAPDH. […] Where applicable, curves were fitted using a 4-parametric logistic model.
# PBRM1BD5 [2] = test: TR-FRET ternary complex affinity and cooperativity, PBRM1; type: binding; conditions: ratio TR-FRET EC50 / TR-FRET EC50 +VCB measured in the same run, PBRM1BD5
# PBRM1BD5 [3] = biological target: T3, PBRM1BD5 (Homo sapiens, UniProt P40337+Q86U86); test: as above; type: binding; conditions: TR-FRET competition for PBRM1BD5, + VCB; mean ± SD; read-out: TR-FRET Ternary PBRM1BD EC50 (PROTAC + VCB)
# T3 construct: GST (TEV site) (N); His6 (TEV site) (N, cleaved yes); made in house; host or cells: PBRM1^BD5: Escherichia coli BL21(DE3)
# [4] = biological target: T4, (Homo sapiens, UniProt P51532); test: TR-FRET ternary complex affinity and cooperativity, SMARCA4; type: binding
# T4 construct: P51532, residues 1448–1569 with additional N-terminal SM residues; GST (TEV site) (N); His6 (TEV site) (N, cleaved yes); made in house; host or cells: SMARCA4^BD: Escherichia coli BL21(DE3)
# [5] = biological target: VCB: PROTAC: SMARCA4^BD ternary complex (Homo sapiens, UniProt P40337+P51532); test: as above; type: binding; parameters: P51532, residues 1448–1569 with additional N-terminal SM residues; GST (TEV site) (N); His6 (TEV site) (N, cleaved yes); made in house; host or cells: SMARCA4^BD: Escherichia coli BL21(DE3)
# [6] = TR-FRET competition for SMARCA2BD, without VCB, mean ± SD, read-out: TR-FRET SMARCA2BD EC50
# [7] = binary, PROTAC alone, individual replicates, read-out: SMARCA2 BD EC50
# [8] = PROTAC + VCB, read-out: Ternary PBRM1 BD EC50 (PROTAC + VCB)
# [9] = binary, PROTAC alone, read-out: PBRM1 EC50
# [10] = TR-FRET competition for SMARCA4BD, without VCB, mean ± SD, read-out: TR-FRET SMARCA4BD EC50
# [11] = binary, PROTAC alone, individual replicates, read-out: SMARCA4 BD EC50
# [12] = PROTAC + VCB, individual replicates, read-out: Ternary SMARCA4 BD EC50 (PROTAC + VCB)
# [13] = TR-FRET competition for SMARCA4BD, + VCB, mean ± SD, read-out: TR-FRET Ternary SMARCA4BD EC50 (PROTAC + VCB)
# SMARCA2, sequence (P51531 whole entry): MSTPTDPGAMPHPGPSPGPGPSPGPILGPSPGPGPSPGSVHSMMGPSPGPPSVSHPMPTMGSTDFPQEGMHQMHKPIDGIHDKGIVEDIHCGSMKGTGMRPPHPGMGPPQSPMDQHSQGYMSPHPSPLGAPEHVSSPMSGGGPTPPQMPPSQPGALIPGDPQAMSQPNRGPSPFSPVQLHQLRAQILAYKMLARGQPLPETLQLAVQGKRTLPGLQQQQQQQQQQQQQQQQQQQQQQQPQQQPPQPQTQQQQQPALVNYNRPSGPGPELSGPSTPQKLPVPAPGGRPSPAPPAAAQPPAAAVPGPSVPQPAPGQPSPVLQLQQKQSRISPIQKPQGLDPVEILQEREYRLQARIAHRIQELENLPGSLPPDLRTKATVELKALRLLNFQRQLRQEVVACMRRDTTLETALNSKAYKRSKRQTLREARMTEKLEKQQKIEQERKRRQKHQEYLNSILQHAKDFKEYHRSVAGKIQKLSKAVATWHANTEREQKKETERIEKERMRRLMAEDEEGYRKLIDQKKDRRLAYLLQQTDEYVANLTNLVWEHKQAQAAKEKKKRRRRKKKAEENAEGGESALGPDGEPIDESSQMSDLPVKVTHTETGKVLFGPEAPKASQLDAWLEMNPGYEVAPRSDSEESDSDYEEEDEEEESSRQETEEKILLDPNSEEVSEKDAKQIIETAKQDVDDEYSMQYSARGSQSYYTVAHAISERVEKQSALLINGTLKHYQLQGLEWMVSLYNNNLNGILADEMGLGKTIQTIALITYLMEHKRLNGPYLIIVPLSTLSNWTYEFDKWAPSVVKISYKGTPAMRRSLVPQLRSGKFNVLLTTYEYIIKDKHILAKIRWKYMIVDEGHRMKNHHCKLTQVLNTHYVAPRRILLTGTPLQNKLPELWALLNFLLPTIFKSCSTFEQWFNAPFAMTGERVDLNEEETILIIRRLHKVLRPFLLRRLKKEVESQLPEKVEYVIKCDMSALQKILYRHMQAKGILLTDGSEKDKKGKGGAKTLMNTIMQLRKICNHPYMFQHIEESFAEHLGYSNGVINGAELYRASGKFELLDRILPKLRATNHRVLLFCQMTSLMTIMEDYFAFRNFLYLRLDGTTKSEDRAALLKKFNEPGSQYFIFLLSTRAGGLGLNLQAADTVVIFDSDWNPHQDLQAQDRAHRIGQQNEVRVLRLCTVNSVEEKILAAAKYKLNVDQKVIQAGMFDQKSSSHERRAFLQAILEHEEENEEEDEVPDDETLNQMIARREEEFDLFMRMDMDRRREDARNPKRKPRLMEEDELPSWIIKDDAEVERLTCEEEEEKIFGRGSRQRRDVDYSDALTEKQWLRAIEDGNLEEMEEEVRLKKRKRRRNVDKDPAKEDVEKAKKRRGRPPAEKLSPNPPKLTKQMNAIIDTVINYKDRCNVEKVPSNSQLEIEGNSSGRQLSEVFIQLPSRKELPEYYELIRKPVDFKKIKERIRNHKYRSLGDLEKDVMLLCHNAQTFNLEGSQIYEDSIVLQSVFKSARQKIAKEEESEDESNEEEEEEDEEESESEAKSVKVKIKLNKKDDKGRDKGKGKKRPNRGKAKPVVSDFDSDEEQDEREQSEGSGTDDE
# T1 sequence (P51531 with tags, fused parts or gaps isoform P51531-2): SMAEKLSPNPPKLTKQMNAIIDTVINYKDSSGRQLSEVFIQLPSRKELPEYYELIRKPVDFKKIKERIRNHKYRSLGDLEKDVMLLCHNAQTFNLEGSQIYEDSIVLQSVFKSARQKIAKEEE
# T3 sequence (Q86U86 645-766): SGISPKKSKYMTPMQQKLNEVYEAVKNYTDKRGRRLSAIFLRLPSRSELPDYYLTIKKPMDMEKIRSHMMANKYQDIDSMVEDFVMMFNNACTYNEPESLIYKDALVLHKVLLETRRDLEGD
# T3 sequence (P40337 54-213): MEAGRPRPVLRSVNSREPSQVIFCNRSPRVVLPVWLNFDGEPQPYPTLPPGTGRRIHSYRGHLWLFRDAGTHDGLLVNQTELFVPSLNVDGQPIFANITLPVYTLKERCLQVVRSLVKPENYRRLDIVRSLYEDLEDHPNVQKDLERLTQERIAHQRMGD
# T3 sequence (Q15369 17-112 partner): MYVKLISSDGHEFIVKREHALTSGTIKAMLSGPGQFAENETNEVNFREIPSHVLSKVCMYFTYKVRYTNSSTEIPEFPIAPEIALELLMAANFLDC
# T3 sequence (Q15370 1-104 partner): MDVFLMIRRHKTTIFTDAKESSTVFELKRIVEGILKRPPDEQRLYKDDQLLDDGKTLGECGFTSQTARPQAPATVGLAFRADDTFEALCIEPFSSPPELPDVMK
# VCB: PROTAC: SMARCA4^BD ternary complex, sequence (P51532 1448-1569): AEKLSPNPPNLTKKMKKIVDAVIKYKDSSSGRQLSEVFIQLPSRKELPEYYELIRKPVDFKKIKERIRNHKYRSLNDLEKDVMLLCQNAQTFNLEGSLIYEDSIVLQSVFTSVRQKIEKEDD
# VCB: PROTAC: SMARCA4^BD ternary complex, sequence (P40337 54-213): as the sequence (P40337 54-213) above
# VCB: PROTAC: SMARCA4^BD ternary complex, sequence (Q15369 17-112 partner): as the sequence (Q15369 17-112 partner) above
# VCB: PROTAC: SMARCA4^BD ternary complex, sequence (Q15370 1-104 partner): as the sequence (Q15370 1-104 partner) above
# T4 sequence (P51532 1448-1569): as the sequence (P51532 1448-1569) above
Compound,"EC50 [1, 6]","EC50 [1, 7]",EC50 (PBRM1 BD; [8]),EC50 (PBRM1 BD; [9]),"DC50 (SMARCA2; RKO (4 h), mean ± SD)","DC50 (SMARCA2; RKO (18 h), mean ± SD)","Dmax (SMARCA2; RKO, RKO (4 h), mean ± SD)","Dmax (SMARCA2; RKO, RKO (18 h), mean ± SD)",cooperativity α (PBRM1BD) (PBRM1BD5 [2]),EC50 (PBRM1BD5 [3]),"EC50 [4, 10]","EC50 [4, 11]","EC50 [5, 12]","EC50 [5, 13]",also measured
Cc1ncsc1-c1ccc([C@H](COC(C)CN2CCC(c3ccc4c(c3)n(C3CCCC3)c3nc(=O)c5c(Br)cccc5n43)CC2)NC(=O)[C@@H]2C[C@@H](O)CN2C(=O)[C@@H](NC(=O)C2(N(C)C)CC2)C(C)(C)C)cc1 (some centres unmarked) [compound 10],150 ± 52 nM,120 nM and 130 nM and 128 nM and 228 nM and 217 nM and 116 nM,6.43 nM and 7.96 nM and 8.03 nM and 9.7 nM,30.5 nM and 31.7 nM and 30 nM,6 ± 3 nM,3 ± 3 nM,70 ± 2%,82 ± 5%,4.2 ± 0.4,8 ± 1 nM,191 ± 85 nM,108 nM and 250 nM and 259 nM,69.6 nM and 88.2 nM and 77.2 nM and 49.4 nM,70 ± 16 nM,
Cc1ncsc1-c1ccc([C@H](CCCCN2CCC(c3ccc4c(c3)n(C3CCCC3)c3nc(=O)c5c(Br)cccc5n43)CC2)NC(=O)[C@@H]2C[C@@H](O)CN2C(=O)[C@@H](NC(=O)C2(F)CC2)C(C)(C)C)cc1 [compound 25],87 ± 35 nM,179 nM and 54.5 nM and 63.5 nM and 111 nM and 66.9 nM and 57.7 nM and 73.7 nM and 97.8 nM and 88.9 nM and 103 nM and 118 nM and 101 nM and 123 nM and 55.7 nM,2.29 nM and 2.88 nM and 3.31 nM and 5.31 nM and 3.22 nM,33 nM and 36.4 nM and 33.2 nM and 57.3 nM and 26.6 nM,3 ± 1 nM,3 ± 1 nM,,,11.2 ± 2.1,3 ± 1 nM,182 ± 57 nM,134 nM and 202 nM and 155 nM and 262 nM,69.7 nM and 82.3 nM and 75.3 nM and 90.7 nM,79 ± 9 nM,"SMARCA2 Dmax (SMARCA2; RKO (4 h), mean ± SD): 66 ± 5%; SMARCA2 Dmax (SMARCA2; RKO (18 h), mean ± SD): 80 ± 6%"
Cc1ncsc1-c1ccc([C@H](CCCCCN2CCC(c3ccc4c(c3)n(C3CCCC3)c3nc(=O)c5c(Br)cccc5n43)CC2)NC(=O)[C@@H]2C[C@@H](O)CN2C(=O)[C@@H](NC(=O)C2(F)CC2)C(C)(C)C)cc1 [compound 11],123 ± 45 nM,183 nM and 73.1 nM and 107 nM and > 400 nM and 65.7 nM and 113 nM and 145 nM and 121 nM and 105 nM and 125 nM and 146 nM and 228 nM and 144 nM,3.17 nM and 4.26 nM and 3.96 nM,43.1 nM and 50 nM and 41.1 nM and 31.5 nM,2 ± 1 nM,1 ± 0.1 nM,73 ± 6%,87 ± 2%,11.9 ± 1.3,4 ± 1 nM,279 ± 40 nM,241 nM and 322 nM and 280 nM,65.3 nM and 77.7 nM and 60.4 nM,67 ± 9 nM,SMARCA2/4 selectivity improvement on linker elongation (compound 11 compared with compound 6) (SMARCA2; all-carbon linker series): two- to threefold
Cc1ncsc1-c1ccc([C@H](COCCN2CCC(c3ccc4c(c3)n(C3CCCC3)c3nc(=O)c5c(Br)cccc5n43)CC2)NC(=O)[C@@H]2C[C@@H](O)CN2C(=O)[C@@H](NC(=O)C2(N(C)C)CC2)C(C)(C)C)cc1 [compound 26],71 ± 15 nM,87 nM and 79.2 nM and 87.9 nM and 88.7 nM and 86.5 nM and 48.4 nM and 75.1 nM and 59.9 nM and 56.1 nM (2×) and 67.5 nM,4.07 nM and 5.33 nM and 4.96 nM and 5.58 nM and 10.7 nM and 6.01 nM and 6.73 nM and 6.09 nM,22.2 nM and 18.2 nM and 23.4 nM and 24.5 nM and 15.7 nM and 23.5 nM and 21.5 nM and 14.9 nM and 30.3 nM and 26.7 nM,12 ± 7 nM,6 ± 2 nM,77 ± 3%,82 ± 4%,4.0 ± 1.2,6 ± 2 nM,149 ± 41 nM,136 nM and 180 nM and 162 nM and 117 nM and 111 nM and 126 nM and 154 nM and 147 nM and 247 nM,,56 ± 23 nM,
Cc1ncsc1-c1ccc(C(CCC(C)CCN2CCC(c3ccc4c(c3)n(C3CCCC3)c3nc(=O)c5c(Br)cccc5n43)CC2)NC(=O)C2CC(O)CN2C(=O)C(NC(=O)C2(F)CC2)C(C)(C)C)cc1 (centres unmarked) [ACBI2],172 ± 109 nM,94.6 nM and 127 nM and 166 nM and 204 nM and 373 nM,,,4 ± 1 nM,,71 ± 2%,81 ± 7%,13.8 ± 1.5,5 ± 1 nM,314 ± 121 nM,308 nM and 459 nM and 220 nM,80.9 nM and 99.7 nM and 79.5 nM,86 ± 11 nM,"EC50 (PBRM1 BD; PBRM1 EC50, binary, PROTAC alone): 59.3 nM and 67.2 nM and 77.7 nM; EC50 (PBRM1 BD; Ternary PBRM1 BD EC50 (PROTAC + VCB), PROTAC + VCB): 3.83 nM and 5.7 nM and 5.49 nM; window of SMARCA2 over SMARCA4 degradation (SMARCA2; RKO cells): > 30 fold; DC50 (SMARCA2; RKO cells, time not stated at the place (Supplementary Data 2)): 1 nM; Bottom (% protein remaining, four-parameter fit) (SMARCA2; RKO, SM2): 21.72%; HillSlope (protein remaining) (SMARCA2; RKO, SM2): -0.9367; Top (% protein remaining, four-parameter fit) (SMARCA2; RKO, SM2): 158.8%"

# From article PMC9551036, “A selective and orally bioavailable VHL-recruiting PROTAC achieves SMARCA2 degradation in vivo” (Nature Communications, 2022)
